Drawing on US20230265151A1, “GIP/GLP1 CO-AGONIST COMPOUNDS” (priority 2020, published 2023), this text covers Ki, Emax and EC50 for 4 compounds.

Experiment [1] has as its target T1, human Gcg receptor (hGcgR) (Homo sapiens, UniProt P47871).
T1 construct: expressed in transfected cells; crude membranes
In words: [125I]-Glucagon binding, SPA with membranes of HEK293 cells expressing hGcgR. The conditions noted are these: human GcgR; geometric mean (SEM, n); read-out: Binding Affinity Ki, nM (SEM, n) hGCGR.

For experiment [2], the target named is T2, human GLP-1 receptor (hGLP-1R) (Homo sapiens, UniProt P43220).
T2 construct: expressed in transfected cells; crude membranes
T2 sequence (P43220 24-463): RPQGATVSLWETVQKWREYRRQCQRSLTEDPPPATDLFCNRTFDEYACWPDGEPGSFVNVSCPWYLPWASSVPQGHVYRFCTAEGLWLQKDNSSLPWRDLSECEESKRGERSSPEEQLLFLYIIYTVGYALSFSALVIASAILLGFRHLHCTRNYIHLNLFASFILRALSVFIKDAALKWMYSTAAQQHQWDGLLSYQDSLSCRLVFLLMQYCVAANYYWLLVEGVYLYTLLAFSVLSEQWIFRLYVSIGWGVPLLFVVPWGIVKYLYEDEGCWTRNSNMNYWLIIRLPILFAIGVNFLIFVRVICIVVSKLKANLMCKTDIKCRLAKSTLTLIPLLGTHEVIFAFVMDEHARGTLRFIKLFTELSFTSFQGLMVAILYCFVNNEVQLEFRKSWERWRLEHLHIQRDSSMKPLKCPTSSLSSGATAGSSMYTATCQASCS
Kind of experiment: [125I]-GLP-1 binding, SPA with membranes of HEK293 cells expressing hGLP-1R. The conditions noted are these: human GLP-1R; geometric mean (SEM, n); read-out: Binding Affinity Ki, nM (SEM, n) hGLP-1R.

In experiment [3] the target is T3, human GIP receptor (hGIPR) (Homo sapiens, UniProt P48546).
T3 construct: expressed in transfected cells; crude membranes
T3 sequence (P48546 22-466): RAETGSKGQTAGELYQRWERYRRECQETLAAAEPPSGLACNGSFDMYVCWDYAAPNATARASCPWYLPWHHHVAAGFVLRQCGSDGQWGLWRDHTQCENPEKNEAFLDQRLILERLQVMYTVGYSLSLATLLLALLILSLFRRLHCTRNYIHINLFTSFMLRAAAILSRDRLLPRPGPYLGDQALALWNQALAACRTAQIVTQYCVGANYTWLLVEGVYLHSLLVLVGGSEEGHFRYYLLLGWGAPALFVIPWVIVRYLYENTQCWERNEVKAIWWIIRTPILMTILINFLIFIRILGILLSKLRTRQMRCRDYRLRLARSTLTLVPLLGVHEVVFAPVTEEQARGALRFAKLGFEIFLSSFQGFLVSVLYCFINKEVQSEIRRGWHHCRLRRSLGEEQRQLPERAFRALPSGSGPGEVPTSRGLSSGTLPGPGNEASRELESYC
Kind of experiment: [125I]-GIP binding, SPA with membranes of CHO cells expressing hGIPR. The following applies: human GIPR; geometric mean (SEM, n); read-out: Binding Affinity Ki, nM (SEM, n) hGIPR.

For experiment [4], the target named is T4, hGIPR (Homo sapiens, UniProt P48546).
T4 construct: expressed in transfected cells
T4 sequence (P48546 22-466): T3 sequence (P48546 22-466)
Kind of experiment: Functional cAMP formation (HTRF) in HEK-293 clonal cells expressing hGIPR, 0.1% bovine casein, without or with 1.0% human serum albumin. Format: cell-based. The conditions noted are these: for Emax: read-out: hGIPR Emax, % ± SEM; for EC50: read-out: hGIPR EC50, nM (SEM, n). The procedure, abridged: (§1)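 Cells were stimulated with peptide for 30 min at 37° C, then lysed in buffer carrying cAMP-d2 and anti-cAMP Eu3+-cryptate for a competitive HTRF read after at least 60 min at room temperature. The 665/620 nm ratio was converted to nM cAMP against a standard curve.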

Experiment [5] concerns the target T5, hGCGR (Homo sapiens, UniProt P47871).
T5 construct: expressed in transfected cells
Kind of experiment: Functional cAMP formation (HTRF) in HEK-293 clonal cells expressing hGCGR, 0.1% bovine casein, without or with 1.0% human serum albumin. The following applies: read-out: hGCGR EC50, nM (SEM, n). In kind it is cell-based. The procedure, abridged:
as §1

Experiment [6] has as its target hGLP-1R (Homo sapiens, UniProt P43220). In words: Functional cAMP formation (HTRF) in HEK-293 clonal cells expressing hGLP-1R, 0.1% bovine casein, without or with 1.0% human serum albumin. Format: cell-based. On the set-up: expressed in transfected cells. The following applies: 37° C.; for Emax: read-out: hGLP-1R Emax, % ± SEM; for EC50: read-out: hGLP-1R EC50, nM (SEM, n). The procedure, abridged:
as §1

The mark [7] stands for this setting: HEK293, cAMP, 37° C., 0.1% bovine casein and 1.0% human serum albumin, percent of maximal response to GIP(1-42)NH2.
Setting [8] is: cAMP, 37° C., 0.1% bovine casein (no human serum albumin), geometric mean.
The mark [9] stands for this setting: cAMP, 37° C., 0.1% bovine casein and 1.0% human serum albumin, geometric mean (SEM, n).
[10] abbreviates: HEK293, cAMP, 0.1% bovine casein, percent of maximal response to GLP-1(7-36)NH2, arithmetic mean.
The mark [11] stands for this setting: cAMP, 0.1% bovine casein (no human serum albumin), geometric mean.
Where [12] appears, read: cAMP, 0.1% bovine casein and 1.0% human serum albumin, geometric mean (SEM, n).
Setting [13] is: 0.1% bovine casein and 1.0% human serum albumin, 37° C., geometric mean.
The mark [14] stands for this setting: cAMP, incubated at 37° C., 0.1% bovine casein (no human serum albumin), geometric mean.

Read-outs that look alike come from different tables or passages of the source. Where only a bound is given, the exact number is not on record here.

hGLP-1R, sequence (P43220 24-463): as the sequence (P43220 24-463) above
T1 sequence (P47871 26-477): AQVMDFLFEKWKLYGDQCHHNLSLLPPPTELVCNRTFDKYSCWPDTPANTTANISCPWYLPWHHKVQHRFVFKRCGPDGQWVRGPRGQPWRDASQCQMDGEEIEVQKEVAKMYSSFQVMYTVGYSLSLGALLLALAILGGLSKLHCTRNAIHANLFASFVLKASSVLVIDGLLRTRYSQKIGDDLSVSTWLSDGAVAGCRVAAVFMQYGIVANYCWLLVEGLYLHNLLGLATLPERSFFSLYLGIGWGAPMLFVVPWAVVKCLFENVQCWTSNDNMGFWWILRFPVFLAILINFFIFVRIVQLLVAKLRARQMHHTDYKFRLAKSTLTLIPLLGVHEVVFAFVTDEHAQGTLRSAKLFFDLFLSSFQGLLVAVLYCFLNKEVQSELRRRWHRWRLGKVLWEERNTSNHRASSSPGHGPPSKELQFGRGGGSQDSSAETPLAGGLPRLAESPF
T5 sequence (P47871 26-477): as above

Turning to `CC[C@H](C)[C@H](NC(=O)[C@H](CC(C)C)NC(=O)[C@](C)(Cc1ccc(O)cc1)NC(=O)[C@H](CCCCNC(=O)CCCCCNC(=O)COCCOCCNC(=O)CC[C@H](NC(=O)CCCCCCCCCCCCC(=O)O)C(=O)O)NC(=O)[C@@H](NC(=O)[C@H](Cc1ccccc1)NC(=O)[C@H](CCCN)NC(=O)C(C)(C)NC(=O)[C@H](CCC(N)=O)NC(=O)[C@H](C)NC(=O)[C@H](CCC(N)=O)NC(=O)[C@H](CCCN)NC(=O)[C@H](CC(=O)O)NC(=O)[C@H](CC(C)C)NC(=O)[C@](C)(CC(C)C)NC(=O)[C@@H](NC(=O)C(C)(C)NC(=O)[C@H](Cc1ccncc1)NC(=O)[C@H](CC(=O)O)NC(=O)[C@H](CO)NC(=O)[C@@H](NC(=O)[C@](C)(Cc1ccccc1F)NC(=O)[C@@H](NC(=O)CNC(=O)[C@H](CCC(=O)O)NC(=O)C(C)(C)NC(=O)[C@@H](N)Cc1ccc(O)cc1)[C@@H](C)O)[C@@H](C)O)[C@@H](C)CC)[C@@H](C)CC)C(=O)N[C@@H](CCCCNC(=O)CCCCCNC(=O)COCCOCCNC(=O)CC[C@H](NC(=O)CCCCCCCCCCCCC(=O)O)C(=O)O)C(=O)NCC(=O)NCC(=O)N1CCC[C@H]1C(=O)N[C@@H](CO)C(=O)N[C@@H](CO)C(=O)NCC(=O)N[C@@H](C)C(=O)N1CCC[C@H]1C(=O)N1CCC[C@H]1C(=O)N1CCC[C@H]1C(=O)N[C@@H](CO)C(N)=O` [Example 451], the results for the Ki in experiment [1], in experiment [2] and in experiment [3] were 258 nM, 0.234 nM and 0.0239 nM, respectively. In addition, the results for the Emax in experiment [4] (setting [7]) and in experiment [6] (setting [10]) were 89.5% and 118%, respectively. The half-maximal effective concentration (EC50) is 0.0113 nM in experiment [4] (setting [8]), above 9950 nM in experiment [5] (setting [8]), above 9950 nM in experiment [5] (setting [9]) and 0.172 nM in experiment [6] (setting [11]).

As to `CC[C@H](C)[C@H](NC(=O)[C@H](CC(C)C)NC(=O)[C@](C)(Cc1ccc(O)cc1)NC(=O)[C@H](CCCCNC(=O)COCCOCCNC(=O)COCCOCCNC(=O)COCCOCCNC(=O)CC[C@H](NC(=O)CCCCCCCCCCCCC(=O)O)C(=O)O)NC(=O)[C@@H](NC(=O)[C@H](Cc1ccccc1)NC(=O)[C@H](CCC(=O)O)NC(=O)C(C)(C)NC(=O)[C@H](CCC(N)=O)NC(=O)[C@H](C)NC(=O)[C@H](CCC(N)=O)NC(=O)[C@H](CCCN)NC(=O)[C@H](CC(=O)O)NC(=O)[C@H](CC(C)C)NC(=O)[C@](C)(CC(C)C)NC(=O)[C@@H](NC(=O)C(C)(C)NC(=O)[C@H](Cc1ccncc1)NC(=O)[C@H](CC(=O)O)NC(=O)[C@H](CO)NC(=O)[C@@H](NC(=O)[C@](C)(Cc1ccccc1F)NC(=O)[C@@H](NC(=O)CNC(=O)[C@H](CCC(=O)O)NC(=O)C(C)(C)NC(=O)[C@@H](N)Cc1ccc(O)cc1)[C@@H](C)O)[C@@H](C)O)[C@@H](C)CC)[C@@H](C)CC)C(=O)N[C@@H](CCCCNC(=O)COCCOCCNC(=O)COCCOCCNC(=O)COCCOCCNC(=O)CC[C@H](NC(=O)CCCCCCCCCCCCC(=O)O)C(=O)O)C(=O)NCC(=O)NCC(=O)N1CCC[C@H]1C(=O)N[C@@H](CO)C(=O)N[C@@H](CO)C(=O)NCC(=O)N[C@@H](C)C(=O)N1CCC[C@H]1C(=O)N1CCC[C@H]1C(=O)N1CCC[C@H]1C(=O)N[C@@H](CO)C(N)=O` [Example 460], the results for the Ki in experiment [1] and in experiment [3] were above 959 nM and 0.0528 nM, respectively. Also, the maximum response (Emax) in experiment [4] (setting [7]) was found to be 89.5%; in experiment [6] (setting [10]) it was 111%. Moreover, the EC50 in experiment [4] (setting [8]) was 0.0108 nM; in experiment [5] (setting [8]) it was above 9950 nM; in experiment [5] (setting [9]) it was above 9950 nM; in experiment [6] (setting [11]) it was 0.187 nM; in experiment [6] (setting [12]), 6.31 nM.

Take `CC[C@H](C)[C@H](NC(=O)[C@H](CC(C)C)NC(=O)[C@](C)(Cc1ccc(O)cc1)NC(=O)[C@@H](CCC(=O)O)NC(=O)[C@@H](NC(=O)[C@H](Cc1ccccc1)NC(=O)[C@H](CCCCNC(=O)COCCOCCNC(=O)COCCOCCNC(=O)CC[C@H](NC(=O)CCCCCCCCCCCCC(=O)O)C(=O)O)NC(=O)C(C)(C)NC(=O)[C@H](CCC(N)=O)NC(=O)[C@H](C)NC(=O)[C@H](CCC(N)=O)NC(=O)[C@H](CCCN)NC(=O)[C@H](CC(=O)O)NC(=O)[C@H](CC(C)C)NC(=O)[C@](C)(CC(C)C)NC(=O)[C@@H](NC(=O)C(C)(C)NC(=O)[C@H](Cc1ccncc1)NC(=O)[C@H](CC(=O)O)NC(=O)[C@H](CO)NC(=O)[C@@H](NC(=O)[C@](C)(Cc1ccccc1F)NC(=O)[C@@H](NC(=O)CNC(=O)[C@H](CCC(=O)O)NC(=O)C(C)(C)NC(=O)[C@@H](N)Cc1ccc(O)cc1)[C@@H](C)O)[C@@H](C)O)[C@@H](C)CC)[C@@H](C)CC)C(=O)N[C@@H](CCCCNC(=O)COCCOCCNC(=O)COCCOCCNC(=O)CC[C@H](NC(=O)CCCCCCCCCCCCC(=O)O)C(=O)O)C(=O)NCC(=O)NCC(=O)N1CCC[C@H]1C(=O)N[C@@H](CO)C(=O)N[C@@H](CO)C(=O)NCC(=O)N[C@@H](C)C(=O)N1CCC[C@H]1C(=O)N1CCC[C@H]1C(=O)N1CCC[C@H]1C(=O)N[C@@H](CO)C(N)=O` [Example 488]: the results for the inhibitory constant (Ki) in experiment [1] and in experiment [3] were above 958 nM and 0.064 nM, respectively. For the same compound, the Emax in experiment [4] (setting [7]) came to 85.5%; in experiment [6] (setting [10]), 113%. The 50% effective concentration (EC50) in experiment [4] (setting [8]) was 0.0115 nM; in experiment [4] (setting [9]), 0.718 nM; in experiment [5] (setting [8]), above 10100 nM; in experiment [5] (setting [9]), above 9950 nM; in experiment [6] (setting [11]), 0.207 nM; in experiment [6] (setting [12]) it was 13 nM.

For `CC[C@H](C)[C@H](NC(=O)[C@H](CC(C)C)NC(=O)[C@](C)(Cc1ccc(O)cc1)NC(=O)[C@@H](CCC(=O)O)NC(=O)[C@@H](NC(=O)[C@H](Cc1ccccc1)NC(=O)[C@H](CCCCNC(=O)COCCOCCNC(=O)COCCOCCNC(=O)CC[C@H](NC(=O)CCCCCCCCCCCCC(=O)O)C(=O)O)NC(=O)C(C)(C)NC(=O)[C@H](CCC(N)=O)NC(=O)[C@H](C)NC(=O)[C@H](CCCCNC(=O)COCCOCCNC(=O)COCCOCCNC(=O)CC[C@H](NC(=O)CCCCCCCCCCCCC(=O)O)C(=O)O)NC(=O)[C@H](CCCN)NC(=O)[C@H](CC(=O)O)NC(=O)[C@H](CC(C)C)NC(=O)[C@](C)(CC(C)C)NC(=O)[C@@H](NC(=O)[C@H](CO)NC(=O)[C@H](Cc1ccncc1)NC(=O)[C@H](CC(=O)O)NC(=O)[C@H](CO)NC(=O)[C@@H](NC(=O)[C@](C)(Cc1ccccc1F)NC(=O)[C@@H](NC(=O)CNC(=O)[C@H](CCC(=O)O)NC(=O)C(C)(C)NC(=O)[C@@H](N)Cc1ccc(O)cc1)[C@@H](C)O)[C@@H](C)O)[C@@H](C)CC)[C@@H](C)CC)C(=O)N[C@@H](CCC(=O)O)C(=O)NCC(=O)NCC(=O)N1CCC[C@H]1C(=O)N[C@@H](CO)C(=O)N[C@@H](CO)C(=O)NCC(=O)N[C@@H](C)C(=O)N1CCC[C@H]1C(=O)N1CCC[C@H]1C(=O)N1CCC[C@H]1C(=O)N[C@@H](CO)C(N)=O` [Example 15], the Ki was above 966 nM in experiment [1] and 0.0629 nM in experiment [3]. In addition, the EC50 was 0.573 nM in experiment [4] (setting [13]); 0.0133 nM in experiment [4] (setting [14]); above 9950 nM in experiment [5] (setting [13]); above 9950 nM in experiment [5] (setting [14]); 24.8 nM in experiment [6] (0.1% bovine casein and 1.0% human serum albumin, geometric mean). Moreover, the maximum response (Emax) in experiment [4] (HEK293, 0.1% bovine casein and 1.0% human serum albumin, 37° C., percent of maximal response to GIP(1-42)NH2) came to 94.4 ± 1.01%; in experiment [4] (HEK293, percent of maximal response to GIP(1-42)NH2, 37° C., 0.1% bovine casein, arithmetic mean) it was 95.9 ± 2.34%; in experiment [6] (HEK293, 0.1% bovine casein and 1.0% human serum albumin, percent of maximal response to GLP-1(7-36)NH2) it was 93.2 ± 3.68%; in experiment [6] (HEK293, percent of maximal response to GLP-1(7-36)NH2, 0.1% bovine casein, arithmetic mean), 94.3 ± 4.44%.
